According to ChEMBL document CHEMBL3885861, “Open TG-GATES”:

Species on record: Rattus norvegicus
Assay: Open TG-GATES - Regimen: Single
Assay type: toxicity, organism-based, Sprague-Dawley
Set-up: regimen Single, gender Male, age 6 weeks
Settings: in vivo, po, 0 mg/kg, route gavage, dose level Control; for APTT / Bas / Eos / Fbg / Hb / Ht / Lym / MCH / MCHC / MCV / Mono / Neu / PT / Plat / RBC / Ret / WBC: tissue Blood; for KIDNEY_L / KIDNEY_R / KIDNEY_TOTAL: tissue Kidney; for LIVER: tissue Liver; for A/G / ALP / ALT / AST / BUN / CRE / Ca / Cl / DBIL / GLC / IP / K / LDH / Na / PL / RALB / TBIL / TC / TG / TP / gamma-GTP: tissue Plasma

## CC1=C(/C=C/C(C)=C/C=C/C(C)=C/CO)C(C)(C)CCC1 [RETINOL]
3 h
  TERMINAL_BW: 195.7 g
  APTT: 22 s
  Bas: 0%
  Eos: 0.8%
  Fbg: 294.8 mg/dL
  Hb: 13.3 g/dL
  Ht: 38.7%
  Lym: 79.4%
  MCH: 21.4 pg
  MCHC: 34.5%
  MCV: 62.2 fL
  Mono: 2%
  Neu: 16.8%
  PT: 15.8 s
  Plat: 108.5 x10_4/uL
  RBC: 621.4 x10_4/ul
  Ret: 8.9%
  WBC: 97.5 x10_2/uL
  KIDNEY_L: 0.9 g
  KIDNEY_R: 0.9 g
  KIDNEY_TOTAL: 1.8 g
  LIVER: 9 g
  A/G: 1.3
  ALP: 1760.6 IU/L
  ALT: 48 IU/L
  AST: 83.6 IU/L
  BUN: 12.8 mg/dL
  CRE: 0.2 mg/dL
  Ca: 10.6 mg/dL
  Cl: 107.6 meq/L
  DBIL: 0 mg/dL
  GLC: 181 mg/dL
  IP: 8.4 mg/dL
  K: 3.8 meq/L
  LDH: 265.2 IU/L
  Na: 142.2 meq/L
  PL: 148.6 mg/dL
  RALB: 3.2 g/dL
  TBIL: 0.012 mg/dL
  TC: 77 mg/dL
  TG: 58.6 mg/dL
  TP: 5.6 g/dL
  gamma-GTP: 2.8 IU/L
6 h
  TERMINAL_BW: 199.1 g
  APTT: 21.6 s
  Bas: 0%
  Eos: 0.6%
  Fbg: 309.6 mg/dL
  Hb: 13.5 g/dL
  Ht: 38.8%
  Lym: 77%
  MCH: 21.6 pg
  MCHC: 34.9%
  MCV: 61.8 fL
  Mono: 3%
  Neu: 18.8%
  PT: 15.7 s
  Plat: 114.9 x10_4/uL
  RBC: 628.2 x10_4/ul
  Ret: 8.5%
  WBC: 113.2 x10_2/uL
  KIDNEY_L: 1 g
  KIDNEY_R: 1 g
  KIDNEY_TOTAL: 1.9 g
  LIVER: 9.2 g
  A/G: 1.3
  ALP: 1700 IU/L
  ALT: 36.8 IU/L
  AST: 67.8 IU/L
  BUN: 10.6 mg/dL
  CRE: 0.1 mg/dL
  Ca: 10.9 mg/dL
  Cl: 106.4 meq/L
  DBIL: 0.014 mg/dL
  GLC: 181.4 mg/dL
  IP: 9.9 mg/dL
  K: 4.5 meq/L
  LDH: 223.6 IU/L
  Na: 142 meq/L
  PL: 152 mg/dL
  RALB: 3.2 g/dL
  TBIL: 0.022 mg/dL
  TC: 80.6 mg/dL
  TG: 79.6 mg/dL
  TP: 5.5 g/dL
  gamma-GTP: 1.2 IU/L
9 h
  TERMINAL_BW: 198.5 g
  APTT: 21.2 s
  Bas: 0%
  Eos: 0.6%
  Fbg: 303.2 mg/dL
  Hb: 13.1 g/dL
  Ht: 38.3%
  Lym: 81.4%
  MCH: 21.6 pg
  MCHC: 34.3%
  MCV: 63 fL
  Mono: 2.6%
  Neu: 15%
  PT: 15.8 s
  Plat: 122.4 x10_4/uL
  RBC: 608.2 x10_4/ul
  Ret: 7.9%
  WBC: 88.4 x10_2/uL
  KIDNEY_L: 0.9 g
  KIDNEY_R: 0.9 g
  KIDNEY_TOTAL: 1.9 g
  LIVER: 8.3 g
  A/G: 1.2
  ALP: 1691.8 IU/L
  ALT: 33.8 IU/L
  AST: 72.2 IU/L
  BUN: 10 mg/dL
  CRE: 0.1 mg/dL
  Ca: 10.8 mg/dL
  Cl: 107.8 meq/L
  DBIL: 0 mg/dL
  GLC: 183 mg/dL
  IP: 10.8 mg/dL
  K: 4.4 meq/L
  LDH: 302 IU/L
  Na: 142 meq/L
  PL: 131.2 mg/dL
  RALB: 2.9 g/dL
  TBIL: 0.018 mg/dL
  TC: 73.4 mg/dL
  TG: 52.2 mg/dL
  TP: 5.4 g/dL
  gamma-GTP: 4.4 IU/L
24 h
  TERMINAL_BW: 205.1 g
  APTT: 20.8 s
  Bas: 0%
  Eos: 0.8%
  Fbg: 294 mg/dL
  Hb: 13.1 g/dL
  Ht: 37.7%
  Lym: 79.4%
  MCH: 21.9 pg
  MCHC: 34.8%
  MCV: 63.2 fL
  Mono: 2.6%
  Neu: 16.6%
  PT: 16.1 s
  Plat: 119.1 x10_4/uL
  RBC: 598.2 x10_4/ul
  Ret: 7.8%
  WBC: 85.8 x10_2/uL
  KIDNEY_L: 0.9 g
  KIDNEY_R: 0.9 g
  KIDNEY_TOTAL: 1.9 g
  LIVER: 9.7 g
  A/G: 1.3
  ALP: 1692.4 IU/L
  ALT: 41.8 IU/L
  AST: 71.8 IU/L
  BUN: 17.6 mg/dL
  CRE: 0.2 mg/dL
  Ca: 10.7 mg/dL
  Cl: 105.6 meq/L
  DBIL: 0.006 mg/dL
  GLC: 181.6 mg/dL
  IP: 6.4 mg/dL
  K: 4.3 meq/L
  LDH: 245.8 IU/L
  Na: 141.2 meq/L
  PL: 154.2 mg/dL
  RALB: 3.1 g/dL
  TBIL: 0.016 mg/dL
  TC: 79.6 mg/dL
  TG: 79.2 mg/dL
  TP: 5.5 g/dL
  gamma-GTP: 1.2 IU/L
